Measurements published in ChEMBL document CHEMBL2311450, “Synthesis and antibacterial evaluation of novel 11,4″-disubstituted azithromycin analogs with greatly improved activity against erythromycin-resistant bacteria” (2013).
Values after ≈ are worked out from the molar mass of the structure shown.

Legend:
[1] = system: Streptococcus pneumoniae; experiment: Antibacterial activity against erythromycin-resistant Streptococcus pneumoniae B1 expressing erm gene by broth microdilution method; format: functional
[2] = system: Streptococcus pyogenes; experiment: Antibacterial activity against erythromycin-resistant Streptococcus pyogenes RE clinical isolate by broth microdilution method; format: functional
[3] = system: Streptococcus pneumoniae; experiment: Antibacterial activity against erythromycin-resistant Streptococcus pneumoniae A22072 expressing mef gene by broth microdilution method; format: functional
[4] = system: Streptococcus pyogenes; experiment: Antibacterial activity against erythromycin-susceptible Streptococcus pyogenes by broth microdilution method; format: functional
[5] = system: Staphylococcus aureus; experiment: Antibacterial activity against methicillin-susceptible Staphylococcus aureus ATCC 29213 by broth microdilution method; format: functional
[6] = system: Staphylococcus aureus; experiment: Antibacterial activity against erythromycin-susceptible Staphylococcus aureus ATCC 25923 by broth microdilution method; format: functional
[7] = system: Staphylococcus aureus; experiment: Antibacterial activity against penicillin-resistant Staphylococcus aureus clinical isolate by broth microdilution method; format: functional
[8] = system: Streptococcus pneumoniae; experiment: Antibacterial activity against erythromycin-susceptible Streptococcus pneumoniae ATCC 49619 by broth microdilution method; format: functional
[9] = system: Streptococcus pneumoniae; experiment: Antibacterial activity against erythromycin-resistant Streptococcus pneumoniae AB11 expressing erm and mef genes by broth microdilution method; format: functional
[10] = system: Salmonella typhimurium; experiment: Antibacterial activity against Salmonella typhimurium TA98 by broth microdilution method; format: functional, Salmonella enterica subsp. enterica serovar Typhimurium; conditions: Salmonella enterica
[11] = system: Salmonella typhimurium; experiment: Antibacterial activity against Salmonella typhimurium TA102 by broth microdilution method; format: functional, Salmonella enterica subsp. enterica serovar Typhimurium; conditions: Salmonella enterica
[12] = system: Streptococcus pneumoniae; experiment: Ratio of azithromycin MIC to compound MIC for erythromycin-resistant Streptococcus pneumoniae B1; format: functional
[13] = system: Streptococcus pneumoniae; experiment: Ratio of azithromycin MIC to compound MIC for erythromycin-resistant Streptococcus pneumoniae A22072 expressing mef gene; format: functional
[14] = system: Streptococcus pneumoniae; experiment: Ratio of azithromycin MIC to compound MIC for erythromycin-resistant Streptococcus pneumoniae AB11 expressing erm and mef genes; format: functional

## CC[C@H]1OC(=O)[C@H](C)[C@@H](O[C@H]2C[C@@](C)(OC)[C@@H](OC(=O)NCCNC(=O)c3ccc(OC)c(OC)c3)[C@H](C)O2)[C@H](C)[C@@H](O[C@@H]2O[C@H](C)C[C@H](N(C)C)[C@H]2O)[C@](C)(O)C[C@@H](C)CN(C)[C@H](C)[C@@H](OC(=O)NCCc2ccccc2)[C@]1(C)O
[1]
  MIC: 4 µg/mL (≈ 3.49 µM)
[2]
  MIC: 64 µg/mL (≈ 55.8 µM)
[3]
  MIC: 0.5 µg/mL (≈ 0.436 µM)
[4]
  MIC: 32 µg/mL (≈ 27.9 µM)
[5]
  MIC: 4 µg/mL (≈ 3.49 µM)
[6]
  MIC: 1 µg/mL (≈ 0.872 µM)
[7]
  MIC: 4 µg/mL (≈ 3.49 µM)
[8]
  MIC: 0.06 µg/mL (≈ 0.0523 µM)
[9]
  MIC: 16 µg/mL (≈ 14 µM)
[10]
  MIC: 8 µg/mL (≈ 6.98 µM)
[11]
  MIC: 2 µg/mL (≈ 1.74 µM)

## CC[C@H]1OC(=O)[C@H](C)[C@@H](O[C@H]2C[C@@](C)(OC)[C@@H](OC(=O)NCCCCNC(=O)c3cc([N+](=O)[O-])cc([N+](=O)[O-])c3)[C@H](C)O2)[C@H](C)[C@@H](O[C@@H]2O[C@H](C)C[C@H](N(C)C)[C@H]2O)[C@](C)(O)C[C@@H](C)CN(C)[C@H](C)[C@@H](OC(=O)NCc2ccc(F)c(F)c2)[C@]1(C)O
[1]
  MIC: 0.25 µg/mL (≈ 0.204 µM)
[2]
  MIC: 16 µg/mL (≈ 13 µM)
[3]
  MIC: 0.03 µg/mL (≈ 0.0245 µM)
[12]
  Ratio: 512
[4]
  MIC: 2 µg/mL (≈ 1.63 µM)
[5]
  MIC: 4 µg/mL (≈ 3.26 µM)
[13]
  Ratio: 133
[14]
  Ratio: 128
[6]
  MIC: 0.25 µg/mL (≈ 0.204 µM)
[7]
  MIC: 4 µg/mL (≈ 3.26 µM)
[8]
  MIC: 0.03 µg/mL (≈ 0.0245 µM)
[9]
  MIC: 2 µg/mL (≈ 1.63 µM)
[10]
  MIC: 1 µg/mL (≈ 0.815 µM)
[11]
  MIC: 0.5 µg/mL (≈ 0.408 µM)

## CC[C@H]1OC(=O)[C@H](C)[C@@H](O[C@H]2C[C@@](C)(OC)[C@@H](OC(=O)NCCCCNC(=O)c3cc([N+](=O)[O-])cc([N+](=O)[O-])c3)[C@H](C)O2)[C@H](C)[C@@H](O[C@@H]2O[C@H](C)C[C@H](N(C)C)[C@H]2O)[C@](C)(O)C[C@@H](C)CN(C)[C@H](C)[C@@H](OC(=O)NCCc2ccc(OC)cc2)[C@]1(C)O
[1]
  MIC: 0.25 µg/mL (≈ 0.203 µM)
[2]
  MIC: 16 µg/mL (≈ 13 µM)
[3]
  MIC: 0.03 µg/mL (≈ 0.0243 µM)
[12]
  Ratio: 512
[4]
  MIC: 1 µg/mL (≈ 0.81 µM)
[5]
  MIC: 4 µg/mL (≈ 3.24 µM)
[13]
  Ratio: 133
[14]
  Ratio: 128
[6]
  MIC: 0.25 µg/mL (≈ 0.203 µM)
[7]
  MIC: 4 µg/mL (≈ 3.24 µM)
[8]
  MIC: 0.03 µg/mL (≈ 0.0243 µM)
[9]
  MIC: 2 µg/mL (≈ 1.62 µM)
[10]
  MIC: 1 µg/mL (≈ 0.81 µM)
[11]
  MIC: 0.5 µg/mL (≈ 0.405 µM)

## CC[C@H]1OC(=O)[C@H](C)[C@@H](O[C@H]2C[C@@](C)(OC)[C@@H](OC(=O)NCCCCNC(=O)c3cc([N+](=O)[O-])cc([N+](=O)[O-])c3)[C@H](C)O2)[C@H](C)[C@@H](O[C@@H]2O[C@H](C)C[C@H](N(C)C)[C@H]2O)[C@](C)(O)C[C@@H](C)CN(C)[C@H](C)[C@@H](OC(=O)NCCc2ccccc2Cl)[C@]1(C)O
[1]
  MIC: 0.25 µg/mL (≈ 0.202 µM)
[2]
  MIC: 16 µg/mL (≈ 12.9 µM)
[3]
  MIC: 0.03 µg/mL (≈ 0.0242 µM)
[12]
  Ratio: 512
[4]
  MIC: 1 µg/mL (≈ 0.807 µM)
[5]
  MIC: 4 µg/mL (≈ 3.23 µM)
[13]
  Ratio: 133
[14]
  Ratio: 128
[6]
  MIC: 0.12 µg/mL (≈ 0.0969 µM)
[7]
  MIC: 2 µg/mL (≈ 1.61 µM)
[8]
  MIC: 0.03 µg/mL (≈ 0.0242 µM)
[9]
  MIC: 2 µg/mL (≈ 1.61 µM)
[10]
  MIC: 1 µg/mL (≈ 0.807 µM)
[11]
  MIC: 0.25 µg/mL (≈ 0.202 µM)

## CC[C@H]1OC(=O)[C@H](C)[C@@H](O[C@H]2C[C@@](C)(OC)[C@@H](OC(=O)NNC(=O)c3ccccc3OC)[C@H](C)O2)[C@H](C)[C@@H](O[C@@H]2O[C@H](C)C[C@H](N(C)C)[C@H]2O)[C@](C)(O)C[C@@H](C)CN(C)[C@H](C)[C@@H](OC(=O)NCCc2ccccc2)[C@]1(C)O
[1]
  MIC: 8 µg/mL (≈ 7.35 µM)
[2]
  MIC: 64 µg/mL (≈ 58.8 µM)
[3]
  MIC: 2 µg/mL (≈ 1.84 µM)
[4]
  MIC: 32 µg/mL (≈ 29.4 µM)
[5]
  MIC: 2 µg/mL (≈ 1.84 µM)
[6]
  MIC: 2 µg/mL (≈ 1.84 µM)
[7]
  MIC: 4 µg/mL (≈ 3.68 µM)
[8]
  MIC: 0.06 µg/mL (≈ 0.0551 µM)
[9]
  MIC: 16 µg/mL (≈ 14.7 µM)
[10]
  MIC: 16 µg/mL (≈ 14.7 µM)
[11]
  MIC: 8 µg/mL (≈ 7.35 µM)

## CC[C@H]1OC(=O)[C@H](C)[C@@H](O[C@H]2C[C@@](C)(OC)[C@@H](OC(=O)NNC(=O)c3ccc(Cl)cc3)[C@H](C)O2)[C@H](C)[C@@H](O[C@@H]2O[C@H](C)C[C@H](N(C)C)[C@H]2O)[C@](C)(O)C[C@@H](C)CN(C)[C@H](C)[C@@H](OC(=O)NCCc2ccccc2)[C@]1(C)O
[1]
  MIC: 2 µg/mL (≈ 1.83 µM)
[2]
  MIC: 32 µg/mL (≈ 29.3 µM)
[3]
  MIC: 0.12 µg/mL (≈ 0.11 µM)
[4]
  MIC: 1 µg/mL (≈ 0.915 µM)
[5]
  MIC: 2 µg/mL (≈ 1.83 µM)
[6]
  MIC: 0.5 µg/mL (≈ 0.458 µM)
[7]
  MIC: 8 µg/mL (≈ 7.32 µM)
[8]
  MIC: 0.03 µg/mL (≈ 0.0275 µM)
[9]
  MIC: 8 µg/mL (≈ 7.32 µM)
[10]
  MIC: 1 µg/mL (≈ 0.915 µM)
[11]
  MIC: 8 µg/mL (≈ 7.32 µM)

## CC[C@H]1OC(=O)[C@H](C)[C@@H](O[C@H]2C[C@@](C)(OC)[C@@H](OC(=O)NCCNC(=O)c3ccc(C)cc3)[C@H](C)O2)[C@H](C)[C@@H](O[C@@H]2O[C@H](C)C[C@H](N(C)C)[C@H]2O)[C@](C)(O)C[C@@H](C)CN(C)[C@H](C)[C@@H](OC(=O)NCCc2ccccc2)[C@]1(C)O
[1]
  MIC: 2 µg/mL (≈ 1.82 µM)
[2]
  MIC: 64 µg/mL (≈ 58.2 µM)
[3]
  MIC: 0.12 µg/mL (≈ 0.109 µM)
[4]
  MIC: 8 µg/mL (≈ 7.27 µM)
[5]
  MIC: 2 µg/mL (≈ 1.82 µM)
[6]
  MIC: 1 µg/mL (≈ 0.909 µM)
[7]
  MIC: 8 µg/mL (≈ 7.27 µM)
[8]
  MIC: 0.06 µg/mL (≈ 0.0545 µM)
[9]
  MIC: 8 µg/mL (≈ 7.27 µM)
[10]
  MIC: 2 µg/mL (≈ 1.82 µM)
[11]
  MIC: 2 µg/mL (≈ 1.82 µM)

## CC[C@H]1OC(=O)[C@H](C)[C@@H](O[C@H]2C[C@@](C)(OC)[C@@H](O)[C@H](C)O2)[C@H](C)[C@@H](O[C@@H]2O[C@H](C)C[C@H](N(C)C)[C@H]2O)[C@](C)(O)C[C@@H](C)CN(C)[C@H](C)[C@@H](O)[C@]1(C)O [AZITHROMYCIN]
[1]
  MIC: 128 µg/mL (≈ 171 µM)
[2]
  MIC: 8 µg/mL (≈ 10.7 µM)
[3]
  MIC: 4 µg/mL (≈ 5.34 µM)
[4]
  MIC: 0.03 µg/mL (≈ 0.0401 µM)
[5]
  MIC: 2 µg/mL (≈ 2.67 µM)
[6]
  MIC: 0.25 µg/mL (≈ 0.334 µM)
[7]
  MIC: 0.5 µg/mL (≈ 0.668 µM)
[8]
  MIC: 0.03 µg/mL (≈ 0.0401 µM)
[9]
  MIC: 256 µg/mL (≈ 342 µM)
[10]
  MIC: 0.5 µg/mL (≈ 0.668 µM)
[11]
  MIC: 0.25 µg/mL (≈ 0.334 µM)

## CC[C@H]1OC(=O)[C@H](C)[C@@H](O[C@H]2C[C@@](C)(OC)[C@@H](O)[C@H](C)O2)[C@H](C)[C@@H](O[C@@H]2O[C@H](C)C[C@H](N(C)C)[C@H]2O)[C@](C)(OC)C[C@@H](C)C(=O)[C@H](C)[C@@H](O)[C@]1(C)O [CLARITHROMYCIN]
[1]
  MIC: 64 µg/mL (≈ 85.6 µM)
[2]
  MIC: 4 µg/mL (≈ 5.35 µM)
[3]
  MIC: 4 µg/mL (≈ 5.35 µM)
[4]
  MIC: 0.03 µg/mL (≈ 0.0401 µM)
[5]
  MIC: 0.12 µg/mL (≈ 0.16 µM)
[6]
  MIC: 0.12 µg/mL (≈ 0.16 µM)
[7]
  MIC: 0.03 µg/mL (≈ 0.0401 µM)
[8]
  MIC: 0.03 µg/mL (≈ 0.0401 µM)
[9]
  MIC: 128 µg/mL (≈ 171 µM)
[10]
  MIC: 0.5 µg/mL (≈ 0.668 µM)
[11]
  MIC: 0.25 µg/mL (≈ 0.334 µM)

## CC[C@H]1OC(=O)[C@H](C)[C@@H](O[C@H]2C[C@@](C)(OC)[C@@H](O)[C@H](C)O2)[C@H](C)[C@@H](O[C@@H]2O[C@H](C)C[C@H](N(C)C)[C@H]2O)[C@](C)(O)C[C@@H](C)C(=O)[C@H](C)[C@@H](O)[C@]1(C)O [ERYTHROMYCIN]
[1]
  MIC: 128 µg/mL (≈ 174 µM)
[2]
  MIC: 4 µg/mL (≈ 5.45 µM)
[3]
  MIC: 8 µg/mL (≈ 10.9 µM)
[4]
  MIC: 0.03 µg/mL (≈ 0.0409 µM)
[5]
  MIC: 0.12 µg/mL (≈ 0.164 µM)
[6]
  MIC: 0.06 µg/mL (≈ 0.0818 µM)
[7]
  MIC: 0.25 µg/mL (≈ 0.341 µM)
[8]
  MIC: 0.03 µg/mL (≈ 0.0409 µM)
[9]
  MIC: 256 µg/mL (≈ 349 µM)
[10]
  MIC: 0.5 µg/mL (≈ 0.681 µM)
[11]
  MIC: 2 µg/mL (≈ 2.73 µM)
